The results in this text go back to patent publication USRE30633E, “3-Lower alkylcarbamylsulfonamido-4-phenylaminopyridines, n-oxides, derivatives thereof and pharmaceutical compositions containing same” (A. Christiaens Societe Anonyme, priority 1974, dated 1981).

The subject of one assay is paw of rats. Description: Pharmacological test for anti-inflammatory properties (carrageenan rat paw swelling). Format: in vivo. Particulars: oral 1 hour before carrageenan (0.05 ml of 1%), swelling 4 hours after injection by plethysmography, dose not given. As for the experimental part: 1. Pharmacological test for anti-inflammatory properties.
The compounds to be tested are given as freshly prepared solutions or suspensions by oral route 1 hour before injecting the paw of rats with carrageenan which is a known inflammatory agent.
The inflammatory agent (carrageenan) either in solution or suspension is then injected into the plantar tissue of the right hind paw of each rat, the left paw remaining untreated and serving as control. Each animal receives, for example, 0.05 ml of an aqueous solution containing 1% by weight of carrageenan and 0.9% of sodium chloride.
4 hours after the injection of the inflammatory agent, the importance of swelling is determined by plethysmography and is expressed as a percent of the volume of the control paw.
The anti-inflammatory effect expressed as a percentage of inhibition is obtained by comparison between rats treated with the anti-inflammatory compound and a control group of rats.

A further assay has as its system rats. The assay can be described thus: Pharmacological test for diuretic properties (urine volume). Format: in vivo. The conditions noted are these: 50 mg/kg gastric gavage, 25 ml/kg saline s.c., urine collected 4 hours, ml/kg of body weight. As for the experimental part: 2. Pharmacological tests for diuretic properties Lots of 3 rats weighting 250-300 g have been constituted at random, each of them being submitted to the same treatment. The compound to be tested was administered by .[.gastric gavage at a dose of 50 ml/kg as a solution or a.]. .Iadd.gastric gavage at a dose of 50 mg/kg as a solution or a .[…].suspension in water containing 0.45% of methylcellulose (which is an inert mucilaginous substance). Control animals received only distilled water as a placebo. At the same time, all the animals received 25 ml/kg of physiological saline by subcutaneous injection. The rats were then placed in metabolic cages, each cage containing 3 animals receiving the same treatment. The urines have been collected during 4 hours. […] The diuresis is expressed in ml/kg of body weight.

On to `CCNC(=S)NS(=O)(=O)c1cnccc1Nc1cccc(Cl)c1` [JDL 478, 3-ethylthiocarbamylsulfonamido-4-(3'-chloro)-phenylaminopyridine], for which the “% inhibition of acute oedema” value with paw of rats turned out to be 29.6%. The compound further displayed a Diuresis in the assay on rats of 29.7 mL/kg.
The corresponding values for `CC(C)NC(=S)NS(=O)(=O)c1cnccc1Nc1cccc(Cl)c1` [JDL 479, 3-isopropylthiocarbamylsulfonamido-4-(3'-chloro)-phenylaminopyridine] are 45.6% and 44.3 mL/kg.
On the same counts, the results for `C=CCNC(=S)NS(=O)(=O)c1cnccc1Nc1cccc(Cl)c1` [JDL 480, 3-allyl-thiocarbamyl-sulfonamido-4-(3'-chloro)-phenylaminopyridine] are 65.6% and 26.4 mL/kg.
`CC(C)NC(=O)NS(=O)(=O)c1cnccc1NC(C)C` [JDL 482, 3-isopropylcarbamylsulfonamido-4-isopropylaminopyridine]: in the assay on paw of rats, the “% inhibition of acute oedema” value stood at 0%. Besides, in the assay with rats, the Diuresis came out at 25.3 mL/kg.
As for `CCN(CC)c1ccncc1S(=O)(=O)NC(=O)NC(C)C` [JDL 483, 3-isopropylcarbamylsulfonamido-4-diethylaminopyridine], the “% inhibition of acute oedema” value with paw of rats turned out to be 0%. Further, the Diuresis in the assay on rats was 12.4 mL/kg.
On the same counts, the results for `CCN(CC)c1ccncc1S(N)(=O)=O` [JDL 484, 3-sulfonamido-4-diethylaminopyridine] are 13.6% and 9.0 mL/kg.
The corresponding values for `CCCCNC(=O)NS(=O)(=O)c1cnccc1NCc1ccco1` [JDL 485, 3-butylcarbamylsufonamido-4-methyl-furylaminopyridine] are 15.2% and 51.3 mL/kg.
The corresponding values for `CCCCNC(=O)NS(=O)(=O)c1cnccc1Nc1ccc(Cl)c(C(F)(F)F)c1` [JDL 486, 3-butylcarbamylsulfonamido-4-(3'-trifluoromethyl-4'-chloro)-phenyl aminopyridine] are 16.8% and 3.6 mL/kg.
For `CC(C)NC(=O)NS(=O)(=O)c1cnccc1Nc1ccc(Cl)c(C(F)(F)F)c1` [JDL 487, 3-isopropylcarbamylsulfonamido-4-(3'-trifluoromethyl-4'-chloro)-phenylaminopyridine], the “% inhibition of acute oedema” value in the assay with paw of rats was 20.8%. For the same compound, in the assay on rats, the Diuresis was 10.5 mL/kg.
As for `CCNC(=O)NS(=O)(=O)c1cnccc1Nc1ccc(Cl)c(C(F)(F)F)c1` [JDL 488, 3-ethylcarbamylsulfonamido-4-(3'-trifluoromethyl-4'-chloro)-phenyl-aminopyridine], the “% inhibition of acute oedema” value in the assay with paw of rats was 24.8%. In the assay on rats, this compound had a Diuresis of 16.4 mL/kg.
On the same counts, the results for `CCCCNC(=O)NS(=O)(=O)c1cnccc1NC(C)C` [JDL 491, 3-butylcarbamylsulfonamido-4-isopropylaminopyridine] are 88.0% and 25.1 mL/kg.
Take `CNC(=O)NS(=O)(=O)c1cnccc1NCc1ccco1` [JDL 492, 3-methylcarbamylsulfonamido-4-methyl-furylaminopyridine]: in the assay on paw of rats, the “% inhibition of acute oedema” value turned out to be 88.8%. In addition, in the assay with rats, the Diuresis worked out at 14.9 mL/kg.
On the same counts, the results for `CNC(=O)NS(=O)(=O)c1cnccc1Nc1cccc(OC)c1` [JDL 493, 3-methylcarbamylsulfonamido-4-(3'-methoxy)-phenylaminopyridine] are 59.2% and 50.7 mL/kg.
The corresponding values for `CNC(=O)NS(=O)(=O)c1cnccc1Nc1cccc(C)c1` [JDL 494, 3-methylcarbamylsulfonamido-4-(3'-methyl)-phenylaminopyridine] are 85.6% and 75.9 mL/kg.
On the same counts, the results for `CNC(=O)NS(=O)(=O)c1cnccc1Nc1cccc(F)c1` [JDL 495, 3-methylcarbamylsulfonamido-4-(3'-fluoro)-phenylaminopyridine] are 66.2% and 76.3 mL/kg.
For the compound `CNC(=O)NS(=O)(=O)c1cnccc1Nc1cccc(Br)c1` [JDL 496, 3-methylcarbamylsulfonamido-4-(3'-bromo)-phenylaminopyridine], the “% inhibition of acute oedema” value in the assay on paw of rats was 70.4%. In the assay with rats, this compound gave a Diuresis of 72.1 mL/kg.
Turning to `CNC(=O)NS(=O)(=O)c1cncc(C)c1Nc1cccc(Cl)c1` [JDL 501, 3-methylcarbamylsulfonamido-4-(3'-chloro)-phenylamino-5-methylpyridine], the “% inhibition of acute oedema” value in the assay with paw of rats is 39.2%. The compound further registered a Diuresis with rats of 35.9 mL/kg.
On the same counts, the results for `Cc1cncc(S(=O)(=O)NC(=O)NC(C)C)c1Nc1cccc(Cl)c1` [JDL 503, 3-isopropylcarbamylsulfonamido-4-(3'-chloro)-phenylamino-5-methylpyridine] are 71.2% and 48.9 mL/kg.
The corresponding values for `CNC(=O)NS(=O)(=O)c1cnccc1Nc1cccc([N+](=O)[O-])c1` [JDL 504, 3-methylcarbamylsulfonamido-4-(3'-nitro)-phenylaminopyridine] are 43.0% and 17.2 mL/kg.
The corresponding values for `CC(C)NC(=O)NS(=O)(=O)c1cnccc1Nc1cccc([N+](=O)[O-])c1` [JDL 505, 3-isopropylcarbamylsulfonamido-4-(3'-nitro)-phenylaminopyridine] are 68.0% and 56.3 mL/kg.
`CCNC(=O)NS(=O)(=O)c1cnccc1Nc1cccc(CC)c1` [JDL 511, 3-ethylcarbamylsulfonamido-4-(3'-ethyl)-phenylaminopyridine]: in the assay on paw of rats, the “% inhibition of acute oedema” value is reported as 72.0%. The compound also returned a Diuresis in the assay with rats of 66.4 mL/kg.
On the same counts, the results for `CCc1cccc(Nc2ccncc2S(=O)(=O)NC(=O)NC(C)C)c1` [JDL 512, 3-isopropylcarbamylsulfonamido-4-(3'-ethyl)-phenylaminopyridine] are 78.7% and 65.9 mL/kg.
